From patent US11479551B2, “MTA-cooperative PRMT5 inhibitors” (Mirati Therapeutics, Inc., priority 2019, dated 2022)

Experiments:
Type in all cases: cell-based
HCT116 parental cells = experiment: Proliferation assay (CellTiter-Glo, 10 days of treatment), HCT116 parental; details: Homo sapiens, HCT-116, 240 h
Experimental: (§1) Control samples were analyzed in parallel.
Briefly, on Day 0, 250 HCT116 parental or HCT116 homozygous MTAP knockout cell were seeded in 96 well plates in McCoy's 5A supplemented with 10% fetal bovine serum and pen/strep and the cells were incubated overnight at 37° C. plus 5% CO2.
The following day, cells were treated with DMSO vehicle control or a dose response of PRMT5 inhibitors and incubated at 37 C plus 5% CO2 for five days. On Day 6, the cells were trypsinized and split 1:10 into new 96-well plates with fresh medium containing the same concentration of PRMT5 inhibitor and incubated for an additional 5 days at 37° C. plus 5% CO^2.
On Day 11, the viability of the cells was measured using a CTG assay kit (CellTiter-Glo; Promega cat.no G7573) in accordance with the manufacturer's instructions. The IC50 values for each compound after 10 days of treatment were calculated using GraphPad PRISM software.

[1] = test system: HCT116 homozygous MTAP knockout cells; experiment: Proliferation assay (CellTiter-Glo, 10 days of treatment), HCT116 MTAP knockout; details: Homo sapiens, HCT-116, 240 h, read-out: Proliferation HCT116MTAP_KO IC50
In short: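 Cells (250/well) seeded in McCoy's 5A with 10% FBS, then treated the next day with a PRMT5 inhibitor dose response at 37 °C, 5% CO2. On day 6 they were split 1:10 into fresh medium with the same compound concentration. CellTiter-Glo viability was read on day 11 and IC50 taken after 10 days of treatment.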

[2] = test system: PRMT5-dependent Symmetric Di-methyl Arginine signal in HCT116 homozygous MTAP knockout cells; experiment: SYM11 In-Cell Western, HCT116 MTAP knockout; details: Homo sapiens, HCT-116, 96 h, HCT116 homozygous MTAP knockout cells, 4 days of treatment, SYM11/DRAQ5 ratio; read-out: In-cell-Western (SYM11) HCT116 MTAP_KO IC50
[3] = test system: PRMT5-dependent Symmetric Di-methyl Arginine signal in HCT116 parental cells; experiment: SYM11 In-Cell Western, HCT116 parental; details: Homo sapiens, HCT-116, 96 h, 4 days of treatment, SYM11/DRAQ5 ratio
Experimental: as §1
Briefly, on Day 0, 2,000 HCT116 parental or HCT116 homozygous MTAP knockout cells were seeded in 96 well plates in McCoy's 5A supplemented with 10% fetal bovine serum and pen/strep and the cells were incubated overnight at 37° C. plus 5% CO2. The following day, cells were treated with DMSO vehicle control or a dose response of PRMT5 inhibitors, and incubated at 37° C. plus 5% CO^2 for four days.
After 4 days of treatment, the cells were fixed by adding 50 μl of 4% paraformaldehyde solution to each well and the cells were incubated for 20 min at room temperature. The paraformaldehyde solution was removed, 150 μl of ice-cold methanol was added and the plate was placed −20° C. for 10 minutes. The methanol was removed, 150 μl of Odyssey Blocking buffer+0.05% Tween20 was added and the plate was incubated at room temperature with shaking for one hour.
The primary SYM11 antibody solution was removed by aspiration and the wells were washed three consecutive times with phosphate buffered saline containing 0.1% Tween-20 (PBST).
The secondary antibody solution was removed by aspiration and the wells were washed three consecutive times with PB ST.
The SYM11 signal and the DRAQ5 signal were quantified using a Li-Cor Odyssey machine reading at […], respectively. The SYM11/DRAQ5 ratio was used to calculate the inhibition of Symmetric Dimethyl Arginine as percent of DMSO control.

IC50 [1] | IC50 [2] | SMILES | IC50 (HCT116 parental cells) | IC50 [3]
96 nM | 87 nM | Cn1ncc(-c2ccc3c(=O)[nH]nc(CN)c3c2)c1-c1ccc2ccc(F)cc2c1C#N [Example 4-217, 2-(4-(4-(aminomethyl)-1-oxo-1,2-dihydrophthalazin-6-yl)-1-methyl-1H-pyrazol-5-yl)-7-fluoro-1-naphthonitrile] | 2150 nM | > 1000 nM
75 nM | 12 nM | Cn1ncc(-c2ccc3c(=O)[nH]nc(CN)c3c2)c1-c1ccc2c(F)cccc2c1C#N [Example 4-223, 2-(4-(4-(aminomethyl)-1-oxo-1,2-dihydrophthalazin-6-yl)-1-methyl-1H-pyrazol-5-yl)-5-fluoro-1-naphthonitrile] | 7810 nM | 756 nM
416 nM | 10 nM | Cn1ncc(-c2ccc3c(=O)[nH]nc(CN)c3c2)c1-c1cc(F)c2ccccc2c1C#N [Example 4-224, 2-(4-(4-(aminomethyl)-1-oxo-1,2-dihydrophthalazin-6-yl)-1-methyl-1H-pyrazol-5-yl)-4-fluoro-1-naphthonitrile] | 7810 nM | > 1000 nM
84 nM | 17 nM | Cn1ncc(-c2ccc3c(=O)[nH]nc(CN)c3c2)c1-c1ccc2ncc(Cl)cc2c1C#N [Example 4-225, 6-[4-[4-(aminomethyl)-1-oxo-2H-phthalazin-6-yl]-2-methyl-pyrazol-3-yl]-3-chloro-quinoline-5-carbonitrile] | 5170 nM | > 1000 nM
59 nM | 11 nM | Cn1ncc(-c2ccc3c(=O)[nH]nc(CN)c3c2)c1-c1c(C#N)cc2ccccc2c1Cl [Example 4-229, 3-(4-(4-(aminomethyl)-1-oxo-1,2-dihydrophthalazin-6-yl)-1-methyl-1H-pyrazol-5-yl)-4-chloro-2-naphthonitrile] | 2860 nM | > 1000 nM
50 nM | 37 nM | Cn1ncc(-c2ccc3c(=O)[nH]nc(CN)c3c2)c1-c1cc2ccccc2c(OC2CC2)c1C#N [Example 4-231, 3-(4-(4-(aminomethyl)-1-oxo-1,2-dihydrophthalazin-6-yl)-1-methyl-1H-pyrazol-5-yl)-1-cyclopropoxy-2-naphthonitrile] | 3120 nM | > 1000 nM
51 nM | 14 nM | Cc1cc(OC2CC2)c(C#N)c(-c2c(-c3ccc4c(=O)[nH]nc(CN)c4c3)cnn2C)c1F [Example 4-241, 2-(4-(4-(aminomethyl)-1-oxo-1,2-dihydrophthalazin-6-yl)-1-methyl-1H-pyrazol-5-yl)-6-cyclopropoxy-3-fluoro-4-methylbenzonitrile] | 2400 nM | > 1000 nM
86 nM | 48 nM | Cn1ncc(-c2cc(Cl)c3c(=O)[nH]nc(CN)c3c2)c1-c1cc(Cl)cc(OC2CC2)c1C#N [Example 10-16, 2-(4-(4-(aminomethyl)-8-chloro-1-oxo-1,2-dihydrophthalazin-6-yl)-1-methyl-1H-pyrazol-5-yl)-4-chloro-6-cyclopropoxybenzonitrile] | 1760 nM | 86 nM
38 nM | 3 nM | Cc1cc(-c2c(-c3ccc4c(=O)[nH]nc(CN)c4c3)cnn2C)c(C#N)c2ccccc12 [Example 12-10, 2-(4-(4-(aminomethyl)-1-oxo-1,2-dihydrophthalazin-6-yl)-1-methyl-1H-pyrazol-5-yl)-4-methyl-1-naphthonitrile] | 1330 nM | > 1000 nM
51 nM | 22 nM | CCc1cc(-c2cnn(C)c2-c2ccc3ccccc3c2C#N)cc2c(CN)n[nH]c(=O)c12 [Example 15-1, 2-[4-[4-(aminomethyl)-8-ethyl-1-oxo-2H-phthalazin-6-yl]-2-methyl-pyrazol-3-yl]naphthalene-1-carbonitrile] | 1560 nM | > 1000 nM
